Columns and labels:
[1] = tested on: L929 cells; assay: L929 cell necroptosis assay (TNFa + zVAD, CellTiter-Glo recovery); assay type: cell-based, murine; parameters: L929-CTG-recovery, L929, TNFa + zVAD (IC50): unit not given here; conditions: TNFa 2 ng/mL + zVAD-fmk; for IC50: Mus musculus, L929, 18 h, read-out: L929-CTG-recovery, L929, TNFa + zVAD (IC50); for L929-CTG-recovery, L929, TNFa + zVAD (IC50): 18 hours
Protocol: (§1) In this example, U937 and L929 cells were exposed to compounds of the present disclosure and a cell necroptosis assay was conducted to evaluate the compounds' activity against human RIP1 and murine RIP1.
(§2) U937 and L929 cells were obtained from the American Type Culture Collection (Manassas, VA, USA). Both cells were maintained in logarithmic growth phase in complete RPMI 1640 media (Sigma, ST Louis, MO, USA) supplemented with 10% fetal bovine serum (Sigma, ST Louis, MO, USA) at 37° C. with 5% CO2. For necroptosis assay, L929 cells were plated for 18 h in 100 μL/well medium at 10K cells/well in Costar 96-well black clear-bottom plates (Fisher Scientific, Hampton, NH, USA); U937 cells were plated on the day of the assay in 50 μL/well medium containing 60 uM zVAD-fmk (Lonza, Basel, Switzerland) at 50K cells/well. Medium from L929 cells were removed from the 96-well plates and replaced with 50 μL/well new medium containing 40 uM zVAD-fmk. Each compound of the present disclosure evaluated in this example was serially diluted in DMSO from 2.5 mM in 4-fold dilutions, and then diluted 1:125 in complete medium. 50 μL/well 2× of the compound was then added to the cells in the plates. The cells were pre-incubated with the compound for 1 hour at 37° C. with 5% CO2 and before addition of 10 μL/well 11×TNFa (Peprotech, Rocky Hill, NJ, USA) to give a final concentration of 2 ng/mL for TNFa. The relative amount of necroptosis cells was determined by luminescent using a Wallac Victor2 Luminometer (PerkinElmer, Waltham, MA, USA) and a CellTiter-Glo® Luminescent Cell Viability Reagent Assay (Promega, Madison, WI, USA) added per manufacturer instructions after 18 hours of TNFa stimulation at 37° C. with 5% CO2. This example establishes that embodiments of the compounds described herein have unexpectedly potent activity against human RIP1 and murine RIP1, which allows their assessment in in vivo mouse models of disease.

[2] = molecular target: T1, RIPK1 (Homo sapiens, UniProt Q13546); assay: RIPK1 ADP-Glo biochemical kinase assay; conditions: read-out: RIPK1 ADP-Glo Kinase (IC50)
T1 sequence (Q13546 1-671): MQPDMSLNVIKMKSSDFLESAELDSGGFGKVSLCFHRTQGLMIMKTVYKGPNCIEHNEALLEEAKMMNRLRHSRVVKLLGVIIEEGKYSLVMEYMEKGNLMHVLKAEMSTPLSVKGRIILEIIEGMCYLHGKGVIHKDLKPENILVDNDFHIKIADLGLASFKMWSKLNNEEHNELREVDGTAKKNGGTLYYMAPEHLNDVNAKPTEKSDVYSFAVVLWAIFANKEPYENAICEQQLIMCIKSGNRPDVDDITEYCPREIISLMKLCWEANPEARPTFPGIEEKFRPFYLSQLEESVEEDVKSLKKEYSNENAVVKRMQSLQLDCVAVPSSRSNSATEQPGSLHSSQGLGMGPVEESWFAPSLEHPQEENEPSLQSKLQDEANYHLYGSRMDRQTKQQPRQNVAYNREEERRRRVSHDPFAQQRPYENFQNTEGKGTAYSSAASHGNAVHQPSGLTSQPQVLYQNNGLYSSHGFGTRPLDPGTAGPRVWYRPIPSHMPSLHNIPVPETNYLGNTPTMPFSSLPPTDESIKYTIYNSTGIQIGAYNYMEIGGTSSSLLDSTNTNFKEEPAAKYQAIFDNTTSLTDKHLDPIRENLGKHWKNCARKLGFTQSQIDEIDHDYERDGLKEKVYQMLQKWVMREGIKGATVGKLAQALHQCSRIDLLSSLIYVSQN
Protocol: In this example, compounds of the disclosure were evaluated using a biochemical assay using the ADP-Glo™ technology.
ADP-Glo™ (Promega, Madison, WI, USA) reagents were thawed at ambient temperature. Kinase Detection Reagent was prepared by mixing kinase detection buffer with the lyophilized kinase detection substrate.
A […] stock volume of 5× Reaction Kinase Buffer was made by mixing 1000 μl of 1M MgCl2, 500 μl of 1M Tris-HCL pH7.4, 0.5 mg/ml (25 mg) of BSA, and 3475 μl of distilled H2O. A 3 ml 2× working stock volume of Reaction Kinase Buffer was made containing a final concentration of 100 μM DTT and 4 mM MnCl2.
Components of RIPK1 enzyme (Rigel Pharmaceuticals, South San Francisco, CA, USA) were thawed on ice. Diluted RIPK1 was prepared in 1× Kinase Reaction Buffer (diluted from 2× buffer) to 31 ng/well.
1.0 ul of diluted compound was added to a 384 well plate in duplicate. […] The final reaction volume was 5.0 μl.
The plate was quickly centrifuged and the reaction was incubated at 30° C. for 30 minutes. Adding 5 μl of ADP-Glo™ terminated the reaction. The plate was quickly centrifuged and the reaction was incubated at room temperature for 40 minutes. Kinase Detection Reagent was then added and incubated at room temperature for 30 minutes. The relative light unit (RLU) of kinase reaction was determined by luminescent (Luminescence 0.1 s) using a Wallac Victor2 Luminometer (PerkinElmer, Waltham, MA, USA).

[3] = tested on: U937 cells; assay: U937 cell necroptosis assay (TNFa + zVAD, CellTiter-Glo recovery); assay type: cell-based; conditions: Homo sapiens, U-937, 18 h, TNFa 2 ng/mL + zVAD-fmk, read-out: U937 Zvad TNF CTG Recovery, U937, TNFa + zVAD (IC50)
Protocol: as §1, §2

Row | Structure (SMILES) | IC50 [1] | IC50 [2] | IC50 [3] | L929-CTG-recovery, L929, TNFa + zVAD (IC50) [1]
1 | CN1C(=O)[C@@H](NC(=O)n2cc(Cc3cccc(F)n3)cn2)COc2ccc(C#CC(O)C(F)(F)F)cc21 (mixture of isomers) [I-105, (±)-4-((6-Fluoropyridin-2-yl)methyl)-N-((3S)-5-methyl-4-oxo-7-(4,4,4-trifluoro-3-hydroxybut-1-yn-1-yl)-2,3,4,5-tetrahydrobenzo[b][1,4]oxazepin-3-yl)-1H-pyrazole-1-carboxamide] | 1.54 µM | 0.0168 µM | 0.0086 µM | 
2 | CN1C(=O)[C@@H](NC(=O)n2cc(Cc3cccc(F)n3)cn2)COc2ccc(C#CC(C)(C)O)cc21 [I-1, (S)-4-((6-Fluoropyridin-2-yl)methyl)-N-(7-(3-hydroxy-3-methylbut-1-yn-1-yl)-5-methyl-4-oxo-2,3,4,5-tetrahydrobenzo[b][1,4]oxazepin-3-yl)-1H-pyrazole-1-carboxamide] | 2.3 µM | 0.0206 µM | 0.0114 µM | 
3 | Cc1cccc(Cc2cnn(C(=O)N[C@H]3COc4ccc(C#CC(C)(C)O)cc4N(C)C3=O)c2)n1 [I-2, (S)—N-(7-(3-Hydroxy-3-methylbut-1-yn-1-yl)-5-methyl-4-oxo-2,3,4,5-tetrahydrobenzo[b][1,4]oxazepin-3-yl)-4-((6-methylpyridin-2-yl)methyl)-1H-pyrazole-1-carboxamide] | 1.8 µM | 0.0422 µM | 0.0497 µM | 
4 | Cc1ccc(Oc2ccnc(C(=O)N[C@H]3COc4ccc(C#CC5(O)COC5)cc4N(C)C3=O)c2)cn1 [I-3, (S)—N-(7-((3-hydroxyoxetan-3-yl)ethynyl)-5-methyl-4-oxo-2,3,4,5-tetrahydrobenzo[b][1,4]oxazepin-3-yl)-4-((6-methylpyridin-3-yl)oxy)picolinamide] | 3.85 µM | 0.0289 µM | 0.152 µM | 
5 | Cc1ccc(Oc2ccnc(C(=O)N[C@H]3COc4ccc(C#CC(C)(C)O)cc4N(C)C3=O)c2)cn1 [I-4, (S)—N-(7-(3-hydroxy-3-methylbut-1-yn-1-yl)-5-methyl-4-oxo-2,3,4,5-tetrahydrobenzo[b][1,4]oxazepin-3-yl)-4-((6-methylpyridin-3-yl)oxy)picolinamide] | 7.06 µM | 0.0553 µM | 0.361 µM | 
6 | CN1C(=O)[C@@H](NC(=O)c2cc(Oc3ccc(F)nc3)ccn2)COc2ccc(C#CC3(O)COC3)cc21 [I-5, (S)-4-((6-fluoropyridin-3-yl)oxy)-N-(7-((3-hydroxyoxetan-3-yl)ethynyl)-5-methyl-4-oxo-2,3,4,5-tetrahydrobenzo[b][1,4]oxazepin-3-yl)picolinamide] | 2.02 µM | 0.0246 µM | 0.0349 µM | 
7 | CN1C(=O)[C@@H](NC(=O)c2cc(Oc3ccc(F)nc3)ccn2)COc2ccc(C#CC(C)(C)O)cc21 [I-6, (S)-4-((6-fluoropyridin-3-yl)oxy)-N-(7-(3-hydroxy-3-methylbut-1-yn-1-yl)-5-methyl-4-oxo-2,3,4,5-tetrahydrobenzo[b][1,4]oxazepin-3-yl)picolinamide] | 3.43 µM | 0.0409 µM | 0.0496 µM | 
8 | CN1C(=O)[C@@H](NC(=O)c2cc(Cc3cccc(F)n3)ccn2)COc2ccc(C#CC3(O)COC3)cc21 [I-7, (S)-4-((6-fluoropyridin-2-yl)methyl)-N-(7-((3-hydroxyoxetan-3-yl)ethynyl)-5-methyl-4-oxo-2,3,4,5-tetrahydrobenzo[b][1,4]oxazepin-3-yl)picolinamide] | 0.449 µM | 0.0186 µM | 0.0148 µM | 
9 | CN1C(=O)[C@@H](NC(=O)n2cc(Cc3ccccn3)cn2)COc2ccc(Br)cc21 [I-18, (S)—N-(7-Bromo-5-methyl-4-oxo-2,3,4,5-tetrahydrobenzo[b][1,4]oxazepin-3-yl)-4-(pyridin-2-ylmethyl)-1H-pyrazole-1-carboxamide] |  |  | 0.286 µM | 5013
10 | CN1C(=O)[C@@H](NC(=O)n2cc(Cc3cccc(F)n3)cn2)COc2ccc(Br)cc21 [I-20, (S)—N-(7-Bromo-5-methyl-4-oxo-2,3,4,5-tetrahydrobenzo[b][1,4]oxazepin-3-yl)-4-((6-fluoropyridin-2-yl)methyl)-1H-pyrazole-1-carboxamide] |  |  | 0.0502 µM | 5004
11 | CN1C(=O)[C@@H](NC(=O)n2cc(Cc3cccc(C(F)(F)F)n3)cn2)COc2ccc(Br)cc21 [I-21, (S)—N-(7-Bromo-5-methyl-4-oxo-2,3,4,5-tetrahydrobenzo[b][1,4]oxazepin-3-yl)-4-((6-(trifluoromethyl)pyridin-2-yl)methyl)-1H-pyrazole-1-carboxamide] | 30.4 µM |  | 1.37 µM | 
12 | CN1C(=O)[C@@H](NC(=O)n2cc(Cc3cccnc3)cn2)COc2ccc(Br)cc21 [I-22, (S)—N-(7-Bromo-5-methyl-4-oxo-2,3,4,5-tetrahydrobenzo[b][1,4]oxazepin-3-yl)-4-(pyridin-3-ylmethyl)-1H-pyrazole-1-carboxamide] |  |  | 0.0351 µM | 5004
13 | CN1C(=O)[C@@H](NC(=O)n2cc(Cc3ccncc3)cn2)COc2ccc(Br)cc21 [I-28, (S)—N-(7-Bromo-5-methyl-4-oxo-2,3,4,5-tetrahydrobenzo[b][1,4]oxazepin-3-yl)-4-(pyridin-4-ylmethyl)-1H-pyrazole-1-carboxamide] |  |  | 0.235 µM | 5027
14 | CN1C(=O)[C@@H](NC(=O)n2cc(Oc3cccc(F)n3)cn2)COc2ccc(C#CC3CCOCC3)cc21 [I-111, (S)-4-((6-Fluoropyridin-2-yl)oxy)-N-(5-methyl-4-oxo-7-((tetrahydro-2H-pyran-4-yl)ethynyl)-2,3,4,5-tetrahydrobenzo[b][1,4]oxazepin-3-yl)-1H-pyrazole-1-carboxamide] | 85.2 µM |  | 7.27 µM | 
15 | CN1C(=O)[C@@H](NC(=O)c2cc(Oc3ccccn3)ccn2)COc2ccc(C#CC3(O)COC3)cc21 [I-129, (S)—N-(7-((3-hydroxyoxetan-3-yl)ethynyl)-5-methyl-4-oxo-2,3,4,5-tetrahydrobenzo[b][1,4]oxazepin-3-yl)-4-(pyridin-2-yloxy)picolinamide] |  | 2.28 µM | 1.2 µM | 
16 | CN1C(=O)[C@@H](NC(=O)c2cc(Cc3cocn3)ccn2)COc2ccc(C#CC3(O)COC3)cc21 [I-138, (S)—N-(7-((3-hydroxyoxetan-3-yl)ethynyl)-5-methyl-4-oxo-2,3,4,5-tetrahydrobenzo[b][1,4]oxazepin-3-yl)-4-(oxazol-4-ylmethyl)picolinamide] | 0.106 µM |  | 0.0129 µM | 

Source: patent publication US12156880B2, “Heterocyclic RIP1 kinase inhibitors” (Rigel Pharmaceuticals, Inc., priority 2021, dated 2024)
